We go through 23 compounds from patent US11214556B1, “Method of treating colorectal cancer” (King Abdulaziz University, priority 2019, dated 2022).

In one series the test system is HCT-116 cells. In words: SRB cytotoxicity assay, HCT-116. Format: cell-based, human. The following applies: SRB assay, 72 h exposure, ± SEM. As for the experimental part: Compounds in this study were tested against colorectal cancer cell line HCT-116, using sulforhodamine-B (SRB) assay. See Skehan, P.; Storeng, R.; Scudiero, D.; Monks, A.; McMahon, J.; Vistica, D.; Warren, J. T.; Bokesch, H.; Kenney, S.; Boyd, M. R., New colorimetric cytotoxicity assay for anticancer-drug screening. J Natl Cancer Inst 1990, 82 (13), 1107-12, incorporated herein by reference in its entirety. […] However, it was clear that compounds bearing hydrophobic aliphatic groups such as MOS-1505 and MOS-1512 are clearly favored in providing anticancer activities. […] The N-aryl substituents were less advantageous in both potency and solubility.
(§1) Different cell lines were originally purchased from American type culture collection (ATCC, Wesel, Germany) and grown in the tissue culture lab of the Egyptian company for production of vaccines, sera and drugs (Vacsera, Giza, Egypt). The cells were transferred to our laboratory and maintained in the appropriate media as following. HCT-116, CACO-2, and HT-29 (human colon cancer cell lines) were maintained in Roswell Park Memorial Institute medium (RPMI1640) (Invitrogen, Carlsbad, Calif.). The mouse skin fibroblasts (C-166) and Baby Hamster Kidney fibroblasts (BHK) were grown in Dulbecco Modified Eagle's medium (DMEM). Both media were supplemented with 1% of […] of streptomycin, 100 units/mL of penicillin and 10% of heat-inactivated fetal bovine serum (Invitrogen, Carlsbad, Calif.) in a humidified, 5% (v/v) CO2 atmosphere at 37° C.
(§2) The sulforhodamine B (SRB) assays were performed according to Skehan, P.; Storeng, R.; Scudiero, D.; Monks, A.; McMahon, J.; Vistica, D.; Warren, J. T.; Bokesch, H.; Kenney, S.; Boyd, M. R., New colorimetric cytotoxicity assay for anticancer-drug screening. J Natl Cancer Inst 1990, 82 (13), 1107-12, incorporated herein by reference in its entirety. Briefly, exponentially growing cells were trypsinized, counted and seeded at the appropriate densities (5000 cells/100 μL/well) into 96-well microtiter plates. Cells were incubated in a humidified atmosphere at 37° C. for 24 h. Then, the cells were exposed to different compounds at the desired concentrations, (0.01, 0.1, 1, 10, and 100 μM) or to 1% dimethyl sulfoxide (DMSO) for 72 h. At the end of the treatment period, the media were removed, and the cells were fixed with 10% trichloroacetic acid at 4° C. for 1 hr. Following, the cells were washed with tap water four times and incubated with SRB 0.4% for 30 min. Excess dye was removed by washing repeatedly with 1% (vol/vol) acetic acid. The protein-bound dye was dissolved in 10 mM Tris base solution for (optical density) OD determination at 510 nm using a SpectraMax plus Microplate Reader (Molecular Devices, CA). Cell viability was expressed relative to the untreated control cells.
For orientation: The SRB assay estimates cell density from bound dye.

A further series in a line: Solubility profile. The following applies: stated in words together with C log P. It is filed as physicochemical.
For a further series, the system named is CACO-2 cells. Kind of series: SRB cytotoxicity assay, CACO-2. It is filed as cell-based, human. The following applies: ± SEM.
Excerpt: (§3) Based on the favorable pharmacologic and physicochemical properties of MOS-1512, it was selected as a new lead for the second subset of compounds (MOS-1812 to MOS-5112). The compounds in this series contained variable groups at R^1 and R^2 that were all tested against the three cancer cell lines (HCT-116, Caco-2 and HT-29).
as §1, §2

The test system of the next series is HT-29 cells. Kind of series: SRB cytotoxicity assay, HT-29. It is filed as cell-based, human. As to conditions: 72 h exposure, ± SEM.
Excerpt: as §3, §1, §2

Series [1] has as its system CRC cell lines (HCT-116, Caco-2 and HT-29). Kind of series: Cytotoxic activities against CRC cell lines (statement over three lines). The following applies: Homo sapiens. Format: cell-based.
Excerpt: as §3, §1, §2

Setting [2] is: Homo sapiens, Caco-2, 72 h exposure.

In the case of `CCOC(=O)/C(=C/c1ccccc1)NC(=O)C=Cc1ccccc1` [Compound 15EE, Ethyl (Z)-2-cinnamamido-3-phenylacrylate], the melting point (as a rule, the temperature, or range, at which the solid turns liquid) was determined as 153 °C.

In turn, `O=C(C=Cc1ccccc1)N/C(=C\c1ccccc1)C(=O)NC1CCCC1` [Compound 1503, (Z)-2-cinnamamido-N-cyclopentyl-3-phenylacrylamide] yielded a melting point of 239 °C. 48.5 ± 3.1 µM corresponded to half-maximal inhibition in the series with HCT-116 cells (Homo sapiens, HCT-116) (IC50).

`O=C(C=Cc1ccccc1)N/C(=C\c1ccccc1)C(=O)NC12CC3CC(CC(C3)C1)C2` [Compound 1505, (Z)—N-(1-adamantanyl)-2-cinnamamido-3-phenylacrylamide]: the solubility result in the series “Solubility profile” is “poor solubility”. Further, the IC50 (in general, the concentration that gives 50% inhibition) with HCT-116 cells (Homo sapiens, HCT-116) came out at 14.7 ± 0.3 µM.

For the compound `O=C(/C=C/c1ccccc1)N/C(=C\c1ccccc1)C(=O)Nc1cccnc1` [Compound 1507, (Z)-2-[(E)-cinnamamido]-3-phenyl-N-(3-pyridyl)acrylamide], the melting point is > 250 °C (dec.). In addition, the IC50 in the series on HCT-116 cells (Homo sapiens, HCT-116) was more than 100 µM.

In the case of `O=C(/C=C/c1ccccc1)N/C(=C\c1ccccc1)C(=O)NCCO` [Compound 1532, (Z)-2-[(E)-cinnamamido]-N-(2-hydroxyethyl)-3-phenyl-acrylamide], the melting point worked out at 204 °C. The IC50 in the series on HCT-116 cells (Homo sapiens, HCT-116) is more than 100 µM.

In the case of `CCCNC(=O)/C(=C/c1ccc(F)cc1)NC(=O)/C=C/c1ccc(Cl)cc1` [Compound 2312, (Z)-2-[(E)-3-(4-chlorophenyl)acrylamido]-3-(4-fluorophenyl)-N-propylacrylamide], the IC50 in the series with CACO-2 cells (setting [2]) is 2.6 ± 0.233 µM; in the series with HT-29 cells (Homo sapiens, HT-29, monolayer), 4 ± 0.14 µM; in series [1] it was less than 5 µM; in the series with HCT-116 cells (Homo sapiens, HCT-116), 3.8 ± 0.24 µM.

Take `CCCNC(=O)/C(=C/c1ccc(N(C)C)cc1)NC(=O)/C=C/c1ccc(Cl)cc1` [Compound 2812, (Z)-2-[(E)-3-(4-chlorophenyl)acrylamido]-3-[4-(dimethylamino)phenyl]-N-propylacrylamide]: the IC50 is 17 ± 0.8 µM in the series on CACO-2 cells (setting [2]); 9.52 ± 0.42 µM in the series on HT-29 cells (Homo sapiens, HT-29, monolayer); less than 5 µM in series [1]; 20.7 ± 0.32 µM with HCT-116 cells (Homo sapiens, HCT-116).

As to `CCCNC(=O)/C(=C/c1ccc(O)c(OC)c1)NC(=O)/C=C/c1ccc(C)cc1` [Compound 3512, (Z)-3-(4-hydroxy-3-methoxyphenyl)-N-propyl-2-[(E)-3-(p-tolyl)acrylamidolacry]amide], the IC50 was 20.9 ± 1.1 µM in the series on CACO-2 cells (72 h exposure), 15.1 ± 0.67 µM in the series with HT-29 cells (monolayer) and 26.3 ± 1.3 µM in the series on HCT-116 cells.

Turning to `CCCNC(=O)/C(=C/c1ccc(O)c(OC)c1)NC(=O)/C=C/c1cccs1` [Compound 3612, (Z)-3-(4-hydroxy-3-methoxyphenyl)-N-propyl-2-[(E)-3-(thien-2-yl)acrylamidolacry]amide], the IC50 amounted to 28.3 ± 1.3 µM in the series with CACO-2 cells (72 h exposure), 48.3 ± 1.9 µM in the series with HT-29 cells (monolayer) and 24.8 ± 1.4 µM in the series with HCT-116 cells.

Regarding `CCCNC(=O)/C(=C/c1c[nH]c2ccccc12)NC(=O)/C=C/c1ccc(Cl)cc1` [Compound 3812, (Z)-2-[(E)-3-(4-chlorophenyl)acrylamido]-3-(1H-indol-3-yl)-N-propylacrylamide], the IC50 in the series on CACO-2 cells (setting [2]) is 3.35 ± 0.05 µM; in the series with HT-29 cells (Homo sapiens, HT-29, monolayer), 3.41 ± 0.03 µM; in series [1], less than 5 µM; in the series with HCT-116 cells (Homo sapiens, HCT-116), 3.51 ± 0.21 µM.

For the compound `CCCNC(=O)/C(=C/c1c[nH]c2ccccc12)NC(=O)/C=C/c1ccc(OC)cc1` [Compound 3912, (Z)-3-(1H-indol-3-yl)-2-[(E)-3-(4-methoxyphenyl)acrylamido]-N-propylacrylamide], the IC50 with CACO-2 cells (setting [2]) was 2.07 ± 0.03 µM; in the series on HT-29 cells (Homo sapiens, HT-29, monolayer) it was 2.49 ± 0.04 µM; in series [1], less than 5 µM; in the series on HCT-116 cells (Homo sapiens, HCT-116), 4.35 ± 0.29 µM.

`CCCNC(=O)/C(=C/c1c[nH]c2ccccc12)NC(=O)/C=C/c1ccc(C)cc1` [Compound 4012, (Z)-3-(1H-indol-3-yl)-N-propyl-2-[(E)-3-(p-tolyl)acrylamidolacry]amide]: the results for the IC50 with CACO-2 cells (72 h exposure), with HT-29 cells (monolayer) and in the series with HCT-116 cells were 2.3 ± 0.08 µM, 3.12 ± 0.06 µM and 3.39 ± 0.1 µM, respectively.

Take `CCCNC(=O)/C(=C/c1cccnc1)NC(=O)C=Cc1ccccc1` [Compound 4212, (Z)-2-cinnamamido-N-propyl-3-(pyridin-3-yl)acrylamide]: the IC50 with CACO-2 cells (setting [2]) was 66 ± 2.2 µM; in the series with HT-29 cells (Homo sapiens, HT-29, monolayer), more than 100 µM; in the series with HCT-116 cells (Homo sapiens, HCT-116), 73 ± 2.5 µM.

For the compound `CCCNC(=O)/C(=C/c1cccnc1)NC(=O)/C=C/c1ccc(Cl)cc1` [Compound 4312, (Z)-2-[(E)-3-(4-chlorophenyl)acrylamido]-N-propyl-3-(pyridin-3-yl)acrylamide], the IC50 turned out to be 47.3 ± 1.9 µM in the series on CACO-2 cells (setting [2]); 36 ± 1.7 µM with HT-29 cells (Homo sapiens, HT-29, monolayer); 49.4 ± 1.9 µM with HCT-116 cells (Homo sapiens, HCT-116).

Take `CCCNC(=O)/C(=C/c1cccnc1)NC(=O)/C=C/c1ccc(OC)cc1` [Compound 4412, (Z)-2-[(E)-3-(4-methoxyphenyl)acrylamido]-N-propyl-3-(pyridin-3-yl)acrylamide]: the IC50 in the series on CACO-2 cells (setting [2]) stood at 38.1 ± 2 µM; in the series on HT-29 cells (Homo sapiens, HT-29, monolayer), 72.7 ± 6.4 µM; with HCT-116 cells (Homo sapiens, HCT-116) it was 52.1 ± 1.6 µM.

For the compound `CCCNC(=O)/C(=C/c1cccnc1)NC(=O)/C=C/c1ccc(C)cc1` [Compound 4512, (Z)—N-propyl-3-(pyridin-3-yl)-2-[(E)-3-(p-tolyl)acrylamidolacry]amide], the IC50 was 27 ± 1.8 µM with CACO-2 cells (72 h exposure), more than 100 µM with HT-29 cells (monolayer) and more than 100 µM with HCT-116 cells.

Take `CCCNC(=O)/C(=C/c1cccnc1)NC(=O)/C=C/c1cccs1` [Compound 4612, (Z)—N-propyl-3-(pyridin-3-yl)-2-[(E)-3-(thien-2-yl)acrylamidolacry]amide]: the IC50 in the series on CACO-2 cells (72 h exposure) was 41.8 ± 1.4 µM; in the series on HT-29 cells (monolayer), 68.8 ± 6.9 µM; in the series on HCT-116 cells, more than 100 µM.

With `CCCNC(=O)/C(=C/c1ccc([N+](=O)[O-])cc1)NC(=O)C=Cc1ccccc1` [Compound 4712, (Z)-2-cinnamamido-3-(4-nitrophenyl)-N-propylacrylamide], the IC50 was determined as 44.2 ± 2.7 µM in the series with CACO-2 cells (setting [2]); 23.2 ± 1.9 µM with HT-29 cells (Homo sapiens, HT-29, monolayer); 17.3 ± 1.3 µM in the series on HCT-116 cells (Homo sapiens, HCT-116).

As to `CCCNC(=O)/C(=C/c1ccc([N+](=O)[O-])cc1)NC(=O)/C=C/c1ccc(Cl)cc1` [Compound 4812, (Z)-2-[(E)-3-(4-chlorophenyl)acrylamido]-3-(4-nitrophenyl)-N-propylacrylamide], the IC50 is more than 100 µM in the series with CACO-2 cells (setting [2]); 36.9 ± 1.5 µM in the series with HT-29 cells (Homo sapiens, HT-29, monolayer); more than 100 µM in the series on HCT-116 cells (Homo sapiens, HCT-116).

Regarding `CCCNC(=O)/C(=C/c1ccc([N+](=O)[O-])cc1)NC(=O)/C=C/c1ccc(OC)cc1` [Compound 4912, (Z)-2-[(E)-3-(4-methoxyphenyl)acrylamido]-3-(4-nitrophenyl)-N-propylacrylamide], the IC50 in the series with CACO-2 cells (setting [2]) was more than 100 µM; in the series with HT-29 cells (Homo sapiens, HT-29, monolayer), 74.3 ± 3.6 µM; in the series with HCT-116 cells (Homo sapiens, HCT-116) it was more than 100 µM.

As to `CCCNC(=O)/C(=C/c1ccc([N+](=O)[O-])cc1)NC(=O)/C=C/c1ccc(C)cc1` [Compound 5012, (Z)-3-(4-nitrophenyl)-N-propyl-2-[(E)-3-(p-tolyl)acrylamidolacry]amide], the IC50 in the series with CACO-2 cells (72 h exposure), with HT-29 cells (monolayer) and in the series on HCT-116 cells was more than 100 µM each time.

Turning to `CCCNC(=O)/C(=C/c1ccc([N+](=O)[O-])cc1)NC(=O)/C=C/c1cccs1` [Compound 5112, (Z)-3-(4-nitrophenyl)-N-propyl-2-[(E)-3-(thien-2-yl)acrylamidolacry]amide], the IC50 in the series on CACO-2 cells (72 h exposure) is 34.2 ± 1.1 µM; in the series on HT-29 cells (monolayer), more than 100 µM; in the series on HCT-116 cells it was more than 100 µM.

On to `COc1cccc2c1C(=O)c1c(O)c3c(c(O)c1C2=O)C[C@@](O)(C(=O)CO)C[C@@H]3O[C@H]1C[C@H](N)[C@H](O)[C@H](C)O1` [Doxo, doxorubicin, reference compound], for which the IC50 in the series on CACO-2 cells (setting [2]) worked out at 0.14 ± 0.05 µM; in the series with HT-29 cells (Homo sapiens, HT-29, monolayer), 0.3 ± 0.01 µM; in the series on HCT-116 cells (Homo sapiens, HCT-116), 0.6 ± 0.1 µM.
